Laboratory results reported in patent publication US9248193B2, “Formulations of phenyl uracil compounds” (AbbVie Inc., priority 2011, dated 2016).

Assay: Light degradation under ICH photo condition
Format: physicochemical

For COc1c(/C=C/c2ccc(NS(C)(=O)=O)cc2)cc(-n2ccc(=O)[nH]c2=O)cc1C(C)(C)C [Compound A, (E)-N-(4-(3-tert-butyl-5-(2,4-dioxo-3,4-dihydropyrimidin-1(2H)-yl)-2-methoxystyryl)phenyl)methanesulfonamide], the “Stability in solution upon exposure to light” value was “may convert into an alternative isomer”.
